Activity calls are given as the source filed them. Where a SMILES comes first, the peptide text is derived from it. Square brackets hold non-standard residues; d marks the D form. Peptide text beside a SMILES is read from it.
Assays:
[1] = system: Streptococcus sp. 'group A'; assay: Streptococcus pyogenes SK(-)GAS viability under kanamycin – luminescence, BacTiterGlo, confirmation, counter-screen for streptokinase expression inhibitor project, dose response (AID 1900); type: functional, organism-based
Streptokinase A = molecular target: T1, Streptokinase A (Streptococcus pyogenes serotype M1, UniProt P10520); assay: viability-normalized secreted streptokinase activity reduction – plasminogen activation absorbance, OD405, dose response (AID 1914); type: functional, Streptococcus pyogenes M1 GAS;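 note: secreted streptokinase activity via plasminogen activation per viability signal from cell pellet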
T1 sequence (P10520 whole entry): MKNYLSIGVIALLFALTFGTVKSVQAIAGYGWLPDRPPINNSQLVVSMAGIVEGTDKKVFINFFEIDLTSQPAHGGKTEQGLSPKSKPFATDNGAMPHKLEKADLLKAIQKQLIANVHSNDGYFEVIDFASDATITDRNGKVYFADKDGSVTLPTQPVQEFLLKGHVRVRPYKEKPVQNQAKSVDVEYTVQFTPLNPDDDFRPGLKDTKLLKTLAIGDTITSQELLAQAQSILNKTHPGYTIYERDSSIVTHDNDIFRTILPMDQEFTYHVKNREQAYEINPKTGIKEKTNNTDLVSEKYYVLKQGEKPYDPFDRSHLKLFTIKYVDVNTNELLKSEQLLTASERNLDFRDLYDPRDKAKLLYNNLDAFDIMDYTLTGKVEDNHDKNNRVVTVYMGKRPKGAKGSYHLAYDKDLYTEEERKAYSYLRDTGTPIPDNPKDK

Streptococcus = assay: GAS UMAA2166 growth inhibition – luminescence, BacTiterGlo, counter-screen for streptokinase expression inhibitor project, dose response (AID 1915); type: functional, organism-based;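 note: potency for reduction of bacterial viability or growth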
[2] = molecular target: T2, Short transient receptor potential channel 4 (Mus musculus, UniProt Q9QUQ5); assay: block of DAMGO-driven TRPC4 calcium entry – cell-based, HEK293 TRPC4/mu-opioid, Fluo-4 calcium, dose response (AID 434942); type: functional;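 note: potency of inhibitors blocking the TRPC4 calcium response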
T2 sequence (Q9QUQ5 whole entry): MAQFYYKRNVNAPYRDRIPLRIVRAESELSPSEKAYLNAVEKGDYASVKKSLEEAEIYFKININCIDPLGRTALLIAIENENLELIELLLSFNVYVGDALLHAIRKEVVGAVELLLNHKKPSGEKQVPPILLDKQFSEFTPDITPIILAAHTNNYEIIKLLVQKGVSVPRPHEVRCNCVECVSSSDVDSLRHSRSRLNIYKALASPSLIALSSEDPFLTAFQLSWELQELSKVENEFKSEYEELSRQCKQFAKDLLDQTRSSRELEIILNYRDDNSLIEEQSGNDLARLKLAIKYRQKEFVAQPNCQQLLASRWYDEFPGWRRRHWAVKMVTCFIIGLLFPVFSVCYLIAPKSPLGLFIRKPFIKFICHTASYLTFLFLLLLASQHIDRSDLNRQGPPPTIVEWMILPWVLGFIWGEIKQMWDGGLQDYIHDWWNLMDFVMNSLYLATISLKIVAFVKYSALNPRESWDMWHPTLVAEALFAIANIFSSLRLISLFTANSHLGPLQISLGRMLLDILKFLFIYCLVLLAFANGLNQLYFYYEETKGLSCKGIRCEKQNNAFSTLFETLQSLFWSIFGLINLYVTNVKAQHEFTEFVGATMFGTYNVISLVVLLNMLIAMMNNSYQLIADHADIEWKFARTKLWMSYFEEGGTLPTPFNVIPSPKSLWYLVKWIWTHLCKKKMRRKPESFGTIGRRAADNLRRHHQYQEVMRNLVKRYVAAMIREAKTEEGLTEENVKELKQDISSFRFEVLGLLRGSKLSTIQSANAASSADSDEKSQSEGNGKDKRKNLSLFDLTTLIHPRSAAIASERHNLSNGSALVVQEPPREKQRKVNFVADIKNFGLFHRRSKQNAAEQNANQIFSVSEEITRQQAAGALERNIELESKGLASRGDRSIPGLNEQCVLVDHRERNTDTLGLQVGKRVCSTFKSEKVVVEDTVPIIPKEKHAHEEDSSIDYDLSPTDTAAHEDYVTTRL

[3] = molecular target: Induced myeloid leukemia cell differentiation protein Mcl-1 (Homo sapiens, UniProt Q07820); type: functional
Genome polyprotein = Genome polyprotein (dengue virus type 2, UniProt P29990); assay: flavivirus cap methylation enzyme inhibition – biochemical, confirmation dose response, primary screen (AID 588689); type: functional
[4] = molecular target: T3, Carboxy-terminal domain RNA polymerase II polypeptide A small phosphatase 1 (Homo sapiens, UniProt Q9GZU7); assay: CTDSP1 inhibitors, concentration-response, biochemical, absorbance readout, ultra-high-throughput screen actives (AID 540297); type: functional
T3 sequence (Q9GZU7 whole entry): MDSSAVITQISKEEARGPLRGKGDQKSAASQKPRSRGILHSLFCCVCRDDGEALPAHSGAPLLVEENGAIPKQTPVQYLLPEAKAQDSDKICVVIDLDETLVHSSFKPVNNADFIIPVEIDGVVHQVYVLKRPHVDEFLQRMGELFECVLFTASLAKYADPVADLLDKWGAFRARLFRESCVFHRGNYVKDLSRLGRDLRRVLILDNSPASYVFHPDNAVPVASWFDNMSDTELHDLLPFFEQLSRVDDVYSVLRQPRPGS

[5] = molecular target: T4, RNA-binding protein pos-1 (Caenorhabditis elegans, UniProt G5EF15); assay: disruptors of C. elegans POS-1 RNA interaction – biochemical, fluorescence polarization, dose response (AID 1964);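 note: purified POS-1 fused to maltose binding protein made in E. coli; potency of compounds blocking POS-1 binding to fluorescent RNA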
T4 sequence (G5EF15 whole entry): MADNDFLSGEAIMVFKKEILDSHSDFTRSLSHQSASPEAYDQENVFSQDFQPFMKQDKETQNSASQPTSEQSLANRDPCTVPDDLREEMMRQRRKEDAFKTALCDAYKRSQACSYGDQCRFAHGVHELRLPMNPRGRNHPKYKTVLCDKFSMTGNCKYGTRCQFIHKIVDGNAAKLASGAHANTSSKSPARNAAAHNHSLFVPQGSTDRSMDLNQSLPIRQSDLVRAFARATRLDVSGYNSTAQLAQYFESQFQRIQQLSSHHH

[6] = molecular target: T5, Zinc finger protein mex-5 (Caenorhabditis elegans, UniProt Q9XUB2); assay: potency of MEX-5 RNA-binding blockers – biochemical, C. elegans, fluorescence polarization, dose response (AID 1960)
T5 sequence (Q9XUB2 whole entry): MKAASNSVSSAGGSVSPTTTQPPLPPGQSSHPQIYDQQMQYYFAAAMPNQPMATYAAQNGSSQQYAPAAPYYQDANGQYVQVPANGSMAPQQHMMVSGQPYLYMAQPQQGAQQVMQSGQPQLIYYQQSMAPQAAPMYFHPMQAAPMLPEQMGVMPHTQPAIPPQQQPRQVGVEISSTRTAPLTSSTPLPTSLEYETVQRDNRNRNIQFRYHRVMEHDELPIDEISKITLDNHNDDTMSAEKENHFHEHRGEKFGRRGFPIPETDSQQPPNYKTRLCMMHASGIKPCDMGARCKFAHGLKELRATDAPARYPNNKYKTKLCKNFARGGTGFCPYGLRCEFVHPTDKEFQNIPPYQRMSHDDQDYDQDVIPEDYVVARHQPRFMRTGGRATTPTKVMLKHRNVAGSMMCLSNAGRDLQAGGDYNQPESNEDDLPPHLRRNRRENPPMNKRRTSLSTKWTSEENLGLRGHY

[7] = molecular target: T6, Replicative DNA helicase DnaB (Mycobacterium tuberculosis, UniProt P9WMR3); assay: DnaB intein splicing inhibitors, dose response, biochemical, cell-free fluorescence (AID 449749); type: functional
T6 sequence (P9WMR3 whole entry): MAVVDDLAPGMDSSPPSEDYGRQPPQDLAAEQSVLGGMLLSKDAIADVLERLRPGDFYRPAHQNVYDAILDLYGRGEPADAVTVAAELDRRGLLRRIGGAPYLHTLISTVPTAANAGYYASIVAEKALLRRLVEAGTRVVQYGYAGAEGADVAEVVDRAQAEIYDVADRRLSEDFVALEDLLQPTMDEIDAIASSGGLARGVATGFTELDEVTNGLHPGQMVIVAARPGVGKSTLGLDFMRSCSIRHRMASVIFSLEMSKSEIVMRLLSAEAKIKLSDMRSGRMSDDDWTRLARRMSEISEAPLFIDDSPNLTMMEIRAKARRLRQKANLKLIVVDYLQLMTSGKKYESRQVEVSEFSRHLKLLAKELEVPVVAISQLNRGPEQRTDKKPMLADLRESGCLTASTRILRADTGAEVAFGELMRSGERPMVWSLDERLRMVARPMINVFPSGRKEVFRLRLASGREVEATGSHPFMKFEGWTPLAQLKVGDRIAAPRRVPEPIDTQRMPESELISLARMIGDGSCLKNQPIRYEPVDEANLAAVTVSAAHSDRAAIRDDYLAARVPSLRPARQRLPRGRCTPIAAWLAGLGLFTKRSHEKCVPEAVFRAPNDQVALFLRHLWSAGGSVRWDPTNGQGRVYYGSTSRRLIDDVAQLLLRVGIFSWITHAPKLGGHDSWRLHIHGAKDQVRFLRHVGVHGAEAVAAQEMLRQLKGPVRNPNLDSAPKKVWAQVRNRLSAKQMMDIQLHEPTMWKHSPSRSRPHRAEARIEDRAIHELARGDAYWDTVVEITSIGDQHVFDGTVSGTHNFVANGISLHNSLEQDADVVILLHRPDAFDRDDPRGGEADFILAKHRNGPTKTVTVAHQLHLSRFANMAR

P388/ADR = assay: cells; type: functional; details: Mus musculus
SN12K1 = assay: cells; type: functional; details: Homo sapiens
P388 = assay: cells; type: functional; details: Mus musculus
[8] = intracellular Trypanosoma cruzi inhibitors in host cells – cell-based, plate reader, cherry-pick samples, set 3, dose response (AID 651818); type: functional;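 note: compounds incubated with infected cells for about four days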

Sequence of Genome polyprotein (P29990 2492-3391 limits assumed): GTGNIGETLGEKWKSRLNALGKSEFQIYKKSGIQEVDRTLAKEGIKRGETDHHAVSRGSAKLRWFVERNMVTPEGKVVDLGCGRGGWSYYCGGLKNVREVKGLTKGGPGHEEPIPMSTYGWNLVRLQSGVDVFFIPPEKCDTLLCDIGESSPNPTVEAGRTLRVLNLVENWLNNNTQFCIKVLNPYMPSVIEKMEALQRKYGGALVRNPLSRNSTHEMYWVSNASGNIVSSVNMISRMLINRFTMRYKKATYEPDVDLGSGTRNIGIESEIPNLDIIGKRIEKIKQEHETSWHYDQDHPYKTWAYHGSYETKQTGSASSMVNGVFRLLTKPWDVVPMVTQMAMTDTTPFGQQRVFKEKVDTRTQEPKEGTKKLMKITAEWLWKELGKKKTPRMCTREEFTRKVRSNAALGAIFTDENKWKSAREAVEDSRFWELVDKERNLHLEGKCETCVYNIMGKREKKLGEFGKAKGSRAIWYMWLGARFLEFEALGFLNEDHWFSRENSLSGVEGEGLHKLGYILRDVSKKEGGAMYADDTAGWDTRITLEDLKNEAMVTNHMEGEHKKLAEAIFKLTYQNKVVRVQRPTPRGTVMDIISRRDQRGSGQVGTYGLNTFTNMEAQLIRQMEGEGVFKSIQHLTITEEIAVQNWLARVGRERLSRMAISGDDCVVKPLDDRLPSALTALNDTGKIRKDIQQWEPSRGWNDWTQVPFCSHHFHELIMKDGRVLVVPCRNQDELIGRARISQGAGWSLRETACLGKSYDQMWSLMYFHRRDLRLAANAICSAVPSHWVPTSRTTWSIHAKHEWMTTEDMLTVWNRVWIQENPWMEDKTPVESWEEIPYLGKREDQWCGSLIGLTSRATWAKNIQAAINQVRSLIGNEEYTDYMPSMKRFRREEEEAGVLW
Sequence of Induced myeloid leukemia cell differentiation protein Mcl-1 (Q07820 whole entry): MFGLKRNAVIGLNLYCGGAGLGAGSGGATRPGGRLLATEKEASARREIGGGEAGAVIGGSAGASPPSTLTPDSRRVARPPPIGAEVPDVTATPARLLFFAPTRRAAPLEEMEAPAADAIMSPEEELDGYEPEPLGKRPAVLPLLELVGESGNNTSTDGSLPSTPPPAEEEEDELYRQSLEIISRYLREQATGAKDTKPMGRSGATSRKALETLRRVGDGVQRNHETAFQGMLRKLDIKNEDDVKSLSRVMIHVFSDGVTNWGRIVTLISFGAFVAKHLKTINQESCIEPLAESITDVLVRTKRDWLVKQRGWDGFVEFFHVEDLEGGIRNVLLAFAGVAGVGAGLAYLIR

Row | Structure (SMILES) | EC50 [2] | GI50 (P388/ADR) | GI50 (SN12K1) | GI50 (P388) | other results
1 | CC(=O)N1CCN(c2ccccc2NC(=O)c2cccs2)CC1 | 1.68 µM (active) |  |  |  | EC50 [1]: > 150 µM (not active); EC50 (Streptokinase A): > 150 µM (not active); EC50 (Streptococcus): > 150 µM (not active)
2 | CCOC(=O)C1(CCOC)CCN(C(C)CCc2ccc(OC)cc2)CC1 (stereo not given) | 4.22 µM (active) |  |  |  | 
3 | CCCCNC(=O)c1ccc2nc(-c3ccco3)c(-c3ccco3)nc2c1 |  |  |  |  | IC50 [3]: 6.65 µM (active); IC50 (Genome polyprotein): 80.4 µM (active); IC50 [4]: 3.77 µM (active)
4 | CCCc1nc2ccccc2n1Cc1ccccc1OC | 6.68 µM (active) |  |  |  | 
5 | COC(=O)Cn1cc(C=C2C(=O)NC(=O)NC2=O)c2ccccc21 |  |  |  |  | EC50 [5]: > 300 µM (not active); EC50 [6]: > 300 µM (not active); IC50 (Genome polyprotein): 25.7 µM (active)
6 | COc1cc(C=C2C(=O)NC(=O)NC2=O)ccc1OS(=O)(=O)c1ccccc1[N+](=O)[O-] |  |  |  |  | IC50 (Genome polyprotein): 37.7 µM (active)
7 | Cc1ccc(N(C(=O)c2snc(C(N)=O)c2N)C(C(=O)NCC2CCCO2)c2ccc(C)o2)c(C)c1 (stereo not given) | 1.68 µM (active) |  |  |  | 
8 | N=C(Cc1cccc2ccccc12)NOC(=O)c1cccs1 | 0.596 µM (active) |  |  |  | AC50 [7]: 5.96 µM (active)
9 | Cc1sc(C(C2C(=O)CC(C)(C)CC2=O)C2C(=O)CC(C)(C)CC2=O)cc1[N+](=O)[O-] |  |  |  |  | IC50 (Genome polyprotein): 29.4 µM (active)
10 | O=[N+]([O-])c1cccc(N(CC(O)CN2CCCC2)S(=O)(=O)c2ccccc2)c1 (stereo not given) | 10.6 µM (active) |  |  |  | 
11 | CCS(=O)(=O)Nc1ccc(Nc2c3ccccc3nc3ccccc23)c(OC)c1 |  | 0.0955 µM (active) | 0.51 µM (active) | < 0.01 µM (active) | 
12 | Cc1cc(/N=N/c2ccc(/N=N/c3c(O)c(S(=O)(=O)O)cc4cc(S(=O)(=O)O)ccc34)cc2C)ccc1/N=N/c1ccc2cc(S(=O)(=O)O)cc(S(=O)(=O)O)c2c1 |  | 26.5 µM (inactive) | > 100 µM (inactive) | 42.8 µM (inactive) | 
13 | O=C(CCN1CCOCC1)C(=Cc1ccccc1)C(=O)CCN1CCOCC1 |  | 0.255 µM (active) | 2.32 µM (inactive) | 0.392 µM (active) | 
14 | ClCCN(CC#CCCCC#CCN(CCCl)CCCl)CCCl |  | 2.44 µM (inactive) | 10 µM (inactive) | 0.736 µM (active) | 
15 | O=C(NC/C=C/CO)c1ccccc1 |  | > 100 µM (inactive) | > 100 µM (inactive) | > 100 µM (inactive) | 
16 | COc1ccc(NC(=O)Nc2ccc3c(c2)CC(=O)N([C@@H](C)CO)C[C@@H](C)[C@@H](CN(C)Cc2ccc(C(F)(F)F)cc2)O3)cc1 |  |  |  |  | AC50 [8]: 4.62 µM (active)
17 | Cc1ccc(S(=O)(=O)N(C)C[C@H]2Oc3c(NC(=O)Nc4ccc5c(c4)OCO5)cccc3C(=O)N([C@H](C)CO)C[C@@H]2C)cc1 |  |  |  |  | AC50 [8]: 6.64 µM (active)
18 | Cc1ccc(/C=C/C(=O)c2ccc(O)cc2)cc1 | 3.35 µM (active) |  |  |  | 
19 | CC(C)C[C@H](NC(=O)[C@H](CC(C)C)NC(=O)[C@@H](Cc1c[nH]c2ccccc12)NC(=O)[C@H](Cc1ccccc1)NC(=O)[C@@H](Cc1c[nH]c2ccccc12)NC(=O)[C@H](CCC(N)=O)NC(=O)[C@@H](CCC(N)=O)NC(=O)[C@@H]1CCCN1C(=O)[C@@H](CCCCN)NC(=O)[C@H]1CCCN1C(=O)[C@H](N)CCCN=C(N)N)C(N)=O (H-[dR][dP][dK]P[dQ]Q[dW]F[dW]LL-NH2) |  | > 100 µM (inactive) | > 100 µM (inactive) | > 79.8 µM (inactive) | 
20 | CC1NC(=O)CNC(=O)CNC(=O)C(Cc2ccc(O)cc2)NC(=O)C(C(C)C)NC(=O)C(C)NC1=O (stereo not given) (cyclo(GGAAVY); configuration not given here) |  | > 100 µM (inactive) | > 100 µM (inactive) | > 100 µM (inactive) | 
21 | CC[C@H]1CN2CCc3cc(OC)c(OC)cc3[C@@H]2C[C@@H]1C[C@H]1NCCc2c1[nH]c1ccc(O)cc21 [TUBULOSINE] |  | 0.493 µM (active) | < 0.01 µM (active) | < 0.01 µM (active) | 

Source: ChEMBL document CHEMBL1201862, “PubChem BioAssay data set” (2004)
